The test system of data set [1] is L1210. Nature of the data set: Cytotoxicity against mouse L1210 cells after 72 hrs by MTT assay. To be noted: L1210, 72 h. The format is functional, cell-based.
Data set [2] concerns CCRF-CEM. Briefly: Cytotoxicity against human CEM cells after 72 hrs by MTT assay. The format is functional, cell-based.
Data set [3] can be described thus: Genotoxicity against african green monkey VERO cells. Format: toxicity, cell-based. To be noted: African green monkey (Chlorocebus sabaeus).
In data set [4] the test system is L1210. Nature of the data set: Decrease in cytoplasmic glutathione level in mouse L1210 cells. The format is functional, cell-based.
The subject of data set [5] is CCRF-CEM. Nature of the data set: Induction of apoptosis in human CEM cells assessed as internucleosomal breakdown of DNA chromatin at 100 uM. The format is functional, cell-based.
Data set [6] concerns L1210. Nature of the data set: Induction of apoptosis in mouse L1210 cells assessed as internucleosomal breakdown of DNA chromatin at 100 uM. Format: functional, cell-based.
The test system of another data set is Vero. Nature of the data set: Cytotoxicity against african green monkey VERO cells. Format: cell-based. The following applies: Chlorocebus sabaeus.
Data set [7] has as its system L1210. Briefly: Cytotoxicity against mouse L1210 cells after 48 hrs by MTT assay. To be noted: L1210, 48 h. The format is functional, cell-based.
In data set [8] the test system is L1210. Briefly: Induction of apoptosis in mouse L1210 cells assessed as internucleosomal breakdown of DNA chromatin at 30 uM. Format: functional, cell-based.
The test system of data set [9] is L1210. Nature of the data set: Decrease in mitochondrial glutathione level in mouse L1210 cells. Format: functional, cell-based.
Data set [10] has as its system CCRF-CEM. Nature of the data set: Cytotoxicity against human CEM cells after 24 hrs by MTT assay. Format: functional, cell-based.
In data set [11] the test system is L1210. Briefly: Decrease in cytoplasmic glutathione level in mouse L1210 cells at 100 uM. Format: functional. More on the design: scale not given: the % may be the effect or the level left.
Data set [12] relates to CCRF-CEM. Nature of the data set: Induction of apoptosis in human CEM cells assessed as internucleosomal breakdown of DNA chromatin at 30 uM. Format: functional, cell-based.

SMILES strings stand for the structures. Active and inactive are the calls of the source. The rule behind the calls is not given here.

Consider `O=C(O)c1cc(O)c(O)c(O)c1` [GALLIC ACID], for which the IC50 was 50 µM with L1210 [1]; over 50 µM in the data set on CCRF-CEM [2]; over 299 µM in data set [3]; over 1 µM with Vero; over 50 µM in the data set on L1210 [7]; over 50 µM in the data set on CCRF-CEM [10]. Besides, the outcome with L1210 [4], in the data set on CCRF-CEM [5], in the data set with L1210 [6], in the data set with L1210 [8], in the data set with L1210 [9] and in the data set with CCRF-CEM [12] was Active. The compound also had an Activity with L1210 [11] of 75%.

(Values after ChEMBL document CHEMBL1157159, “Ester derivatives of gallic acid with potential toxicity toward L1210 leukemia cells” (Bioorg Med Chem, 2008).)
